This note sets out measurements from article PMC2276102, “Phage Display Based Cloning of Proteins Interacting with the Cytoplasmic Tail of Membrane Immunoglobulins” (Developmental Immunology, 2002).

Experiment [1] has as its system cHPK1 (87 amino acids of the C-terminal part of HPK1) displayed on phage. In words: Surface plasmon resonance analysis (BIACORE), HIS-tagged Ig-tail peptides on NTA sensor chip, cHPK1 phagemids injected. The format is binding, murine. As to conditions: for decrease of binding capacity / relative binding affinity for cHPK1 compared to the wild type IgE tail: after the elution step, IgE measurement set to 100%; for Elution after 100 s, Relative RUs: binding of cHPK1 phage (10^9 cfu in TBS) to immobilised HIS-tagged Ig-tail, value remaining after 100 s of elution; for Injection after 60 s, Relative RUs: binding of cHPK1 phage (10^9 cfu in TBS, injected 60 s) to immobilised HIS-tagged Ig-tail, 400 (±25) RUs peptide coupled, value taken 60 s after injection; for Elution after 100 s, %: relative RUs after 100 s elution, IgE values were set to 100%. From the text:
Phage Display Based Cloning of Proteins Interacting with the Cytoplasmic Tail of Membrane Immunoglobulins* ROLAND GEISBERGERa , MARTIN PRLICa , GERTRUDE ACHATZ-STRAUSSBERGERa , IRIS OBERNDORFERa , ELKE LUGERb , MARINUS LAMERSc , RETO CRAMERId , ULRICH APPENZELLERd , JURGEN WIENANDSe , MICHAEL BREITENBACHa , FATIMA FERREIRAa and GERNOT ACHATZa, a Department of Genetics and General Biology, Hellbrunnerstrae 34, A-5020 Salzburg, Austria; b DRFZ, Schumannstrasse 21/22, D-10117, Germany; c MPI for Immunobiology, Stubeweg 51, D-79108 Freiburg, Germany; d SIAF, Obere Strasse 22, CH-7270 Davos, Switzerland; e Department of Biochemistry I, Universitaetsstrasse 25, D-33615 Bielefeld, Germany. The reduced quantity and quality of serum immunoglobulins (sIgs) in mutant mice expressing truncated cytoplasmic tails of IgE and IgG1 indicate an active role for the cytoplasmic domains of mIgG1 and mIgE. We used phage display technology to identify candidate proteins able to interact with the cytoplasmic tail of mIgE. […] The interaction of HPK1 with the cytoplasmic domains of membrane immunoglobulins indicate an active role of the tails as part of an isotype specific signal transduction, independent from the Iga/Igb heterodimers, and may represent a missing link to upstream regulatory elements of HPK1 activation. Keywords: Antigen receptor; Cytoplasmic tail; HPK1; Phage display; Surface plasmon resonance INTRODUCTION The B cell antigen receptor (Vitetta et al., 1980; Reth, 1992) plays a central role in almost all processes along the developmental pathway of B cells, i.e. the generation, maturation, survival and activation of B cells. B cell antigen receptors (BCR) exist as a complex of membrane immunoglobulins (mIgs) and at least two other transmem- brane polypeptides, called Ig-a and Ig-b, which connect the antigen receptor to the tyrosine phosphorylation pathways in the cell. In this complex, mIgs serve as isotype specific antigen receptors on the surface of B lymphocytes. All isotypes of mIgs can form a complex with Ig-a and Ig-b (Venkitaraman et al., 1991) indicating an involvement of all isotypes in the signal transduction pathway. The earliest detectable biochemical event that follows BCR-aggregation is increased activity of protein tyrosine kinases (PTKs) of the Syk- and Src-family, which phosphorylate distinct tyrosine residues within conserved sequences present on the cytoplasmic portions of Ig-a and Ig-b (Reth, 1992). Phosphorylation of Ig-a and Ig-b occurs on the tyrosine residues of immuno receptor tyrosine-based activation motif (ITAM) and on the non-ITAM tyrosine 204 of Ig-a (Engels et al., 2001). Once phosphorylated, ITAMs provide binding sites for SRC homology 2 (SH2) domains of the Src and Syk PTKs and the adaptor protein SLP-65 (Engels et al., 2001), thus initiating several signaling pathways, the most important of which are the PLC-g, the Ras and the PI3-kinase pathways (Reth and Wienands, 1997; Kurosaki, 1999). Various external stimuli such as cytokine binding, interaction with other cells as well as stress factors including osmotic shock, heat or ionizing irradiation can influence the signaling cascade initiated by BCR engagement and they can contribute to differential alteration of the pattern of gene expression. Obviously, between Ig subclasses, there should be no differences in the transduction of signals regulating the central features of the immune system (Nussenzweig, 1997) such as the control of allelic exclusion, early cellular transitions and in the function of the membrane- bound immunoglobulin as a receptor for antigen capture ISSN 1044-6672 print q 2002 Taylor & Francis Ltd DOI: 10.1080/1044667031000137584 *Presented at the Proceedings of the 4th Germinal Center Conference, Groningen, The Netherlands, June 2002. Corresponding author. Address: Institut fur Genetik, Hellbrunnerstrae 34, A-5020 Salzburg, Austria. Tel.: 43-662-8044-5764. Fax: 43-662- 8044-144. […]

For experiment [2] the test system is unchanged. In words: Surface plasmon resonance analysis (BIACORE), IgE tail peptide covalently coupled to CM5 sensor chip, cHPK1 phagemids injected. It counts as binding, murine. To be noted: CM5 sensor chip with covalently coupled IgE tail peptide (1683 RUs), random peptide as reference channel; 1 x 10^9 cHPK1 displaying phages injected over 200 s, washing with TBS. From the text: Phage Display Based Cloning of Proteins Interacting with the Cytoplasmic Tail of Membrane Immunoglobulins* ROLAND GEISBERGERa , MARTIN PRLICa , GERTRUDE ACHATZ-STRAUSSBERGERa , IRIS OBERNDORFERa , ELKE LUGERb , MARINUS LAMERSc , RETO CRAMERId , ULRICH APPENZELLERd , JURGEN WIENANDSe , MICHAEL BREITENBACHa , FATIMA FERREIRAa and GERNOT ACHATZa, a Department of Genetics and General Biology, Hellbrunnerstrae 34, A-5020 Salzburg, Austria; b DRFZ, Schumannstrasse 21/22, D-10117, Germany; c MPI for Immunobiology, Stubeweg 51, D-79108 Freiburg, Germany; d SIAF, Obere Strasse 22, CH-7270 Davos, Switzerland; e Department of Biochemistry I, Universitaetsstrasse 25, D-33615 Bielefeld, Germany. The reduced quantity and quality of serum immunoglobulins (sIgs) in mutant mice expressing truncated cytoplasmic tails of IgE and IgG1 indicate an active role for the cytoplasmic domains of mIgG1 and mIgE. We used phage display technology to identify candidate proteins able to interact with the cytoplasmic tail of mIgE. […] The interaction of HPK1 with the cytoplasmic domains of membrane immunoglobulins indicate an active role of the tails as part of an isotype specific signal transduction, independent from the Iga/Igb heterodimers, and may represent a missing link to upstream regulatory elements of HPK1 activation. […]
On the technique in general: In SPR one partner is held on a chip, and binding of the other changes the refractive index at the surface.

Experiment [3] deals with HIS-tagged cytoplasmic tail of membrane IgE (28 amino acids) (mouse). In words: SPR; BIACORE CM5 chip; IgE-tail peptide covalently coupled to Fc1 (1683 RUs), random peptide (1704 RUs) on Fc2 as reference; 1 x 10^9 cfu phagemids in TBS injected, then washing with TBS; relative response.
Experiment [4] concerns the target HIS-tagged cytoplasmic tail of IgG3. In words: SPR; BIACORE NTA sensor chip; HIS-tagged Ig-tail peptides (150 nM in 0.01 M Hepes, 0.15 M NaCl, 50 mM EDTA, 0.005% surfactant P20) captured via the HIS-tag, 400 (+/-25) RUs each; 10^9 cfu cHPK1 phage in TBS injected 1 min, 100 s elution; relative RUs, IgE set to 100%.
In experiment [5] the target is HIS-tagged modified IgE cytoplasmic tail lacking the four amino acids T-F-Q-D (IgEDTFQD) (mouse). The experiment is described as above.
In experiment [6] the target is HIS-tagged cytoplasmic tail of IgG1 (mouse). Described as above.
The target of experiment [7] is HIS-tagged cytoplasmic tail of IgG2b. The experiment is described as above.
Experiment [8] addresses HIS-tagged cytoplasmic tail of IgG2a. The experiment is described as above.
Experiment [9] concerns the target HIS-tagged cytoplasmic tail of IgM (KVK). The experiment is described as above.
Experiment [10] addresses HIS-tag deficient random peptide. The description is as above.
In experiment [11] the target is HIS-tagged cytoplasmic tail of membrane IgE (28 amino acids) (mouse). Described as above.

On to “(6 H) KVKWIFSSVVELKQKISPDYRNMI- GQGA [IgG2b, HIS-tagged synthetic cytoplasmic tail of IgG2b]”, for which, in experiment [1], the “decrease of binding capacity / relative binding affinity for cHPK1 compared to the wild type IgE tail” value was “about 60%”; the “Elution after 100 s, Relative RUs” value worked out at 72 RUs; the “Injection after 60 s, Relative RUs” value is reported as 276 RUs; the “Elution after 100 s, %” value came out at 41%.
In the same order, the values of “(6 H) KVKWIFSSVVELKQTISPDYRNMI- GQGA [IgG2a, HIS-tagged synthetic cytoplasmic tail of IgG2a]” are “about 60%”, 68 RUs, 284 RUs and 38%.
Consider “(6 H) KVKWIFSSVVELKQTLVPEYKNMI- GQAP [IgG1, HIS-tagged synthetic cytoplasmic tail of IgG1]”, for which, in experiment [1], the “Elution after 100 s, Relative RUs” value is reported as 128 RUs; the “Injection after 60 s, Relative RUs” value came to 819 RUs; the “Elution after 100 s, %” value is 72%.
For “(6 H) KVKWIFSSVVQVKQTAIPDYRNMI- GQGA [IgG3, HIS-tagged synthetic cytoplasmic tail of IgG3]” the same measures were 120 RUs, 744 RUs and 67%.
With “(6 H) KVKWVFSTPMQDTPQYA- NILQTRA [IgEDTFQD, HIS-tagged IgE cytoplasmic tail peptide lacking the TFQD amino acids]”, in experiment [1], the “decrease of binding capacity / relative binding affinity for cHPK1 compared to the wild type IgE tail” value came to 47%; the “Elution after 100 s, Relative RUs” value stood at 94 RUs; the “Injection after 60 s, Relative RUs” value was 563 RUs; the “Elution after 100 s, %” value was 53%.
Turning to “HHHHHHKVKWVFSTPMQDTPQTFQDYA- NILQTRA [IgE, HIS-tagged synthetic peptide of the 28 amino acid long cytoplasmic tail of mIgE]”, in [1], the “Elution after 100 s, Relative RUs” value amounted to 177 RUs and the “Injection after 60 s, Relative RUs” value is given as 691 RUs. For the same substance, the “relative increase in affinity after the elution step” value in experiment [2] is recorded as 500 RUs.
In the case of “SPHRCRIHPRPSKTMPTSSRPGH- RCDASTH [Random peptide, HIS-tag deficient random peptide used as control, reference compound]”, in experiment [1], the “Elution after 100 s, Relative RUs” value is on record as around 0 RUs; the “Injection after 60 s, Relative RUs” value is on record as 310 RUs; the “Elution after 100 s, %” value is on record as around 0%.
In experiment [3], “cHPK1, 87 amino acids of the C-terminal part of murine hematopoietic progenitor kinase 1 (HPK1), displayed on phage (domain or fragment)” returned a relative RUs after the elution step of 500 RUs. Moreover, the % of the IgE tail's RUs after elution was found to be 67% in experiment [4]; 53% in experiment [5]; 72% in [6]; 41% in experiment [7]; 38% in experiment [8]. Further, the relative RUs 60 s after injection in experiment [4] was 744 RU; in experiment [5], 563 RU; in experiment [6] it was 819 RU; in experiment [7] it was 276 RU; in experiment [8], 284 RU; in experiment [9], 617 RU. Also, the relative RUs 60 s after injection in experiment [10] was 310 RU; in experiment [11], 691 RU. Moreover, the relative RUs 100 s after elution in experiment [4] is 120 RU; in experiment [5], 94 RU; in [6], 128 RU; in experiment [7] it was 72 RU; in [8] it was 68 RU; in experiment [11], 177 RU.
